In ChEMBL document CHEMBL3994623, “The synthesis and antistaphylococcal activity of 9, 13-disubstituted berberine derivatives” (Eur J Med Chem, 2017) one finds MIC, IC50 and Activity data, which are given here for 28 compounds.

Data set [1] concerns Staphylococcus aureus. Description: Antistaphylococcal activity against Staphylococcus aureus Newman after 18 hrs by two fold serial dilution method. Format: functional.
The test system of data set [2] is Staphylococcus aureus. In words: Antistaphylococcal activity against aminoglycosides/tetracycline-resistant Staphylococcus aureus NRS-1 after 18 hrs by two fold serial dilution method. Conditions: NRS-1, 18 h. Format: functional.
For data set [3], the system named is Staphylococcus aureus. In words: Antistaphylococcal activity against erythromycin-resistant Staphylococcus aureus NRS-70 after 18 hrs by two fold serial dilution method. Format: functional. Conditions: NRS-70, 18 h.
Data set [4] deals with Staphylococcus aureus. Description: Antistaphylococcal activity against oxacillin/tetracycline-resistant Staphylococcus aureus NRS-100 after 18 hrs by two fold serial dilution method. In kind it is functional. Conditions: NRS-100, 18 h.
The test system of data set [5] is Staphylococcus aureus. Description: Antistaphylococcal activity against gentamicin-resistant Staphylococcus aureus NRS-108 after 18 hrs by two fold serial dilution method. Format: functional. Conditions: NRS-108, 18 h.
The test system of data set [6] is Staphylococcus aureus. In words: Antistaphylococcal activity against linezolid-resistant Staphylococcus aureus NRS-271 containing phage type E-MRSA after 18 hrs by two fold serial dilution method. Format: functional. To be noted: NRS-271, 18 h.
Data set [7] can be described thus: Cytotoxicity against HAF assessed as decrease in cell viability after 24 hrs by MTS assay. To be noted: Homo sapiens. In kind it is cell-based.
The nature of data set [8]: Cytotoxicity against HAF assessed as effect on cell morphology at […] ug/ml after 24 hrs by hematoxylin-eosin staining-based contrast microscopic method. To be noted: human.
A short description of data set [9]: Cytotoxicity against HAF assessed as effect on cell morphology at 12.5 ug/ml after 24 hrs by hematoxylin-eosin staining-based contrast microscopic method. To be noted: human.

Converted amounts (≈) assume the structure as drawn. A value given as a limit tells only on which side of the number the result lay.

Consider `CCCCCNc1c(OC)ccc2c(Cc3ccccn3)c3[n+](cc12)CCc1cc2c(cc1-3)OCO2.[Br-]`, for which, in data set [1], the MIC was found to be 12.5 µg/mL.

In data set [1], `COc1ccc2c(Cc3ccc(C)cc3)c3[n+](cc2c1OC)CCc1cc2c(cc1-3)OCO2.[Br-]` showed an MIC of 6.25 µg/mL.

Take `CCCCCNc1c(OC)ccc2c(Cc3ccc(C)c(C)c3)c3[n+](cc12)CCc1cc2c(cc1-3)OCO2.[Br-]`: the MIC turned out to be 1.25 µg/mL in data set [1]; 3.13 µg/mL in data set [2]; 1.56 µg/mL in [3]; 1.56 µg/mL in [4]; 1.56 µg/mL in data set [5]; 1.56 µg/mL in [6]. Further, the IC50 in data set [7] was determined as 12.5 µg/mL.

Regarding `CCCCNc1c(OC)ccc2c(Cc3ccc(F)cc3)c3[n+](cc12)CCc1cc2c(cc1-3)OCO2.[Br-]`, the MIC in data set [1] is 2.5 µg/mL; in data set [2], 6.25 µg/mL; in data set [3], 3.13 µg/mL; in data set [4] it was 6.25 µg/mL; in data set [5], 3.13 µg/mL; in data set [6], 3.13 µg/mL.

`COc1ccc2c(Cc3ccc(C)cc3)c3[n+](cc2c1NCCCc1ccccc1)CCc1cc2c(cc1-3)OCO2.[Br-]` gave an MIC in [1] of 3.13 µg/mL.

For `CCCCNc1c(OC)ccc2c(Cc3ccc(C)cc3)c3[n+](cc12)CCc1cc2c(cc1-3)OCO2.[Br-]`, the MIC in [1] is 1.56 µg/mL; in data set [2] it was 1.56 µg/mL; in data set [3], 1.56 µg/mL; in data set [4], 1.56 µg/mL; in data set [5] it was 3.13 µg/mL; in data set [6], 1.56 µg/mL.

Take `CCCCNc1c(OC)ccc2c(Cc3ccc(OC)cc3)c3[n+](cc12)CCc1cc2c(cc1-3)OCO2.[Br-]`: the MIC in [1] was found to be 2.5 µg/mL; in [2], 6.25 µg/mL; in data set [3], 3.13 µg/mL; in data set [4] it was 6.25 µg/mL; in data set [5], 3.13 µg/mL; in data set [6], 6.25 µg/mL.

Turning to `CCCCCNc1c(OC)ccc2c(CCCN3CCOCC3)c3[n+](cc12)CCc1cc2c(cc1-3)OCO2.[I-]`, the MIC in data set [1] was > 25 µg/mL.

Compound `CCCCCNc1c(OC)ccc2c(CC(=O)OCC)c3[n+](cc12)CCc1cc2c(cc1-3)OCO2.[Br-]` came in with an MIC in data set [1] of 12.5 µg/mL.

As to `CCCCCNc1c(OC)ccc2c(Cc3ccc(OC)cc3)c3[n+](cc12)CCc1cc2c(cc1-3)OCO2.[Br-]`, the MIC in [1] came out at 1.25 µg/mL; in [2] it was 1.56 µg/mL; in data set [3] it was 1.56 µg/mL; in data set [4], 3.13 µg/mL; in data set [5], 1.56 µg/mL; in [6] it was 1.56 µg/mL. For the same compound, the IC50 in [7] came to 13.8 µg/mL.

As for `CCCCCNc1c(OC)ccc2c(Cc3cccs3)c3[n+](cc12)CCc1cc2c(cc1-3)OCO2.[Br-]`, in [1], the MIC turned out to be 3.13 µg/mL.

On to `CCCCCNc1c(OC)ccc2c(Cc3ccc(O)cc3)c3[n+](cc12)CCc1cc2c(cc1-3)OCO2.[Br-]`, for which the MIC is 2.5 µg/mL in data set [1]; 6.25 µg/mL in data set [2]; 1.56 µg/mL in data set [3]; 3.13 µg/mL in [4]; 3.13 µg/mL in [5]; 3.13 µg/mL in data set [6]. The IC50 in [7] is > 20 µg/mL. Also, the values for the Activity result in data set [8] and in data set [9] were “Non-Toxic” and “Toxic”, respectively.

Regarding `CCCCCNc1c(OC)ccc2cc3[n+](cc12)CCc1cc2c(cc1-3)OCO2.[Cl-]`, the MIC in data set [1] was 3.13 µg/mL.

In turn, `CCCCNc1c(OC)ccc2c(Cc3ccccc3)c3[n+](cc12)CCc1cc2c(cc1-3)OCO2.[Br-]` came in with an MIC in data set [1] of 3.13 µg/mL. For the same compound, in [7], the half-maximal inhibitory concentration (IC50) was > 20 µg/mL.

Regarding `CCCCCCNc1c(OC)ccc2c(Cc3ccccc3)c3[n+](cc12)CCc1cc2c(cc1-3)OCO2.[Br-]`, the MIC in data set [1] stood at 2.5 µg/mL; in [2], 1.56 µg/mL; in data set [3] it was 1.56 µg/mL; in data set [4] it was 3.13 µg/mL; in [5], 3.13 µg/mL; in data set [6], 3.13 µg/mL.

Regarding `CCCCCNc1c(OC)ccc2c(Cc3cccc(C)c3)c3[n+](cc12)CCc1cc2c(cc1-3)OCO2.[Br-]`, the MIC in [1] came out at 1.25 µg/mL; in data set [2], 3.13 µg/mL; in [3] it was 1.56 µg/mL; in data set [4] it was 3.13 µg/mL; in [5], 1.56 µg/mL; in [6], 1.56 µg/mL. Moreover, the half-maximal inhibitory concentration (IC50) in data set [7] was 12.7 µg/mL.

Turning to `CCCCCCNc1c(OC)ccc2c(Cc3ccc(F)cc3)c3[n+](cc12)CCc1cc2c(cc1-3)OCO2.[Br-]`, the MIC in data set [1] is 1.56 µg/mL; in data set [2], 3.13 µg/mL; in data set [3], 3.13 µg/mL; in data set [4], 6.25 µg/mL; in data set [5] it was 3.13 µg/mL; in data set [6] it was 3.13 µg/mL.

With `CCCCCNc1c(OC)ccc2c(CCCN3CCCC3)c3[n+](cc12)CCc1cc2c(cc1-3)OCO2.[I-]`, the MIC in data set [1] is > 25 µg/mL.

With `CCCCCNc1c(OC)ccc2c(Cc3ccc(F)cc3)c3[n+](cc12)CCc1cc2c(cc1-3)OCO2.[Br-]`, the MIC in data set [1] was determined as 1.25 µg/mL; in data set [2], 3.13 µg/mL; in [3], 1.56 µg/mL; in data set [4], 3.13 µg/mL; in data set [5], 1.56 µg/mL; in data set [6] it was 1.56 µg/mL. In data set [7], the IC50 was found to be 12.7 µg/mL.

In turn, `CCCCCNc1c(OC)ccc2c(CC(=O)O)c3[n+](cc12)CCc1cc2c(cc1-3)OCO2.[Br-]` came in with an MIC in [1] of 25 µg/mL.

The compound `COc1ccc2c(Cc3ccc(C)cc3)c3[n+](cc2c1NCCCO)CCc1cc2c(cc1-3)OCO2.[Br-]` showed an MIC in [1] of 6.25 µg/mL.

`CCCCCCNc1c(OC)ccc2c(Cc3ccc(OC)cc3)c3[n+](cc12)CCc1cc2c(cc1-3)OCO2.[Br-]`: the MIC stood at 2.5 µg/mL in data set [1]; 6.25 µg/mL in data set [2]; 3.13 µg/mL in data set [3]; 3.13 µg/mL in [4]; 3.13 µg/mL in data set [5]; 6.25 µg/mL in [6].

For `CCCCCNc1c(OC)ccc2c(CCCN3CCCCC3)c3[n+](cc12)CCc1cc2c(cc1-3)OCO2.[I-]`, the MIC in data set [1] was > 25 µg/mL.

`CCCCCNc1c(OC)ccc2c(Cc3ccccc3)c3[n+](cc12)CCc1cc2c(cc1-3)OCO2.[Br-]`: the MIC in [1] was 1.56 µg/mL; in data set [2] it was 3.13 µg/mL; in data set [3] it was 1.56 µg/mL; in data set [4], 1.56 µg/mL; in [5] it was 1.56 µg/mL; in data set [6] it was 1.56 µg/mL. Further, the IC50 in [7] is 15.8 µg/mL.

For the compound `CCCCCNc1c(OC)ccc2c(Cc3ccccc3C)c3[n+](cc12)CCc1cc2c(cc1-3)OCO2.[Br-]`, the MIC in data set [1] came to 1.25 µg/mL; in data set [2], 3.13 µg/mL; in [3], 1.56 µg/mL; in data set [4], 3.13 µg/mL; in [5], 1.56 µg/mL; in data set [6], 3.13 µg/mL. For the same compound, the IC50 in [7] worked out at 13 µg/mL.

Consider `COc1ccc2c(Cc3ccccc3)c3[n+](cc2c1OC)CCc1cc2c(cc1-3)OCO2.[Br-]`, for which the MIC in data set [1] came out at 6.25 µg/mL.

Consider `COc1ccc2cc3[n+](cc2c1OC)CCc1cc2c(cc1-3)OCO2` [BERBERINE], for which the MIC in data set [1] was > 25 µg/mL.

With `CN[C@H](CC(C)C)C(=O)N[C@H]1C(=O)N[C@@H](CC(N)=O)C(=O)N[C@H]2C(=O)N[C@H]3C(=O)N[C@H](C(=O)N[C@H](C(=O)O)c4cc(O)cc(O)c4-c4cc3ccc4O)[C@H](O)c3ccc(c(Cl)c3)Oc3cc2cc(c3O[C@@H]2O[C@H](CO)[C@@H](O)[C@H](O)[C@H]2O[C@H]2C[C@](C)(N)[C@H](O)[C@H](C)O2)Oc2ccc(cc2Cl)[C@H]1O` [VANCOMYCIN], the MIC in data set [1] is 0.78 µg/mL (≈ 0.538 µM); in data set [2], 1.56 µg/mL (≈ 1.08 µM); in data set [3], 0.39 µg/mL (≈ 0.269 µM); in data set [4], 0.78 µg/mL (≈ 0.538 µM); in data set [5], 0.39 µg/mL (≈ 0.269 µM); in [6] it was 0.39 µg/mL (≈ 0.269 µM).
